Reference: patent publication US8729089B2 (Gilead Sciences, Inc., priority 2006, dated 2014)

How the values were obtained:
[1] = CC50 assay (CellTiter-Glo) in Huh-7 HCV replicon cells; type: cell-based, human; settings: human, 3 days incubation, CellTiter-Glo readout
Description: (§1) The anti-HCV activity of the pyrido[3,2-d]pyrimidine derivatives of this invention was tested in a human hepatoma Huh-7 cell line harboring a HCV replicon. The assay comprised the following steps:
(§2) Step 1: Compound Preparation and Serial Dilution
(§3) • 1. for water soluble pyrido[3,2-d]pyrimidine derivatives, a volume of 500 μL of solution in cell media (DMEM, 10% FBS, P/S, L-Glutamine) was prepared with a concentration being twice the concentration of the starting final serial dilution concentration. A volume of 150 μL of the solution was added to the pre-specified wells in column 1 of a 96-well cell culture plate (PerkinElmer, white plate, cat. #6005181, for EC50 assay; black plate, cat. #6005182 for CC50 assay). The rest of the plate, columns 2-12, was filled with 100 μL of cell media. The plate was then placed on a Precision 2000 Workstation to start the serial dilution. Compounds were diluted three times each step from column 1 to column 10. Column 11 was used as a blank control (no compound added). • 2. for pyrido[3,2-d]pyrimidine derivatives requiring DMSO to dissolve, serial dilution is performed in 50% DMSO in a 384-well plate. A solution containing a compound at 100-fold concentration of the starting final serial dilution concentration was prepared in 50% DMSO and added to the pre-specified wells in column 1 of a polypropylene 384-well plate. The plate was then placed on a Precision 2000 Workstation to start the serial dilution. After the serial dilution, a volume of 2 μL of the solution was transferred from the 384-well plate to a 96-well cell culture plate containing 100 μL of cell media on a Biomek FX Workstation. The DMSO concentration in the final assay condition was 0.5% after cells are added to the plate and the total volume in each well is brought to 200 μL.
(§4) Step 2: to each well of the serial dilution plate prepared above, 100 μL of cell media containing 6000 suspended Huh-7 HCV replicon cells was added with a Multidrop workstation. The plates were incubated for 3 days at 37° C. with 5% CO2.
(§5) • a) for the EC50 assay, the media in a 96-well cell culture plate was aspirated with a Biotek EL405 plate-washer. A volume of 200 μL of a solution containing a 1:1 mixture of cell-lysis buffer (Promega, Luciferase Cell Culture Lysis 5× Reagent, cat. #E1531) and luciferase substrate solution (Promega, Luciferase Assay, cat.#E4550) was added to each well of the plate with Multidrop. The plate was incubated for 30 minutes at room temperature before the luminescence signal was measured with a TopCount plate-reader. • b) for the CC50 assay, a volume of 100 μL of pre-mixed CellTiter-Glo (Promega, cat.#G7572) solution is added directly to the cell culture in each well of the plate and the luminescence signal is measured with a TopCount plate-reader after 10 minutes of incubation at room temperature.

[2] = tested on: HCV replicon in human hepatoma Huh-7 cell line; assay: Anti-HCV replicon assay (EC50, luciferase); type: cell-based; settings: Hepatitis C virus, Huh-7, 72 h
Description: as §1, §2, §3, §4, §5

Structure (SMILES)	CC50 at 3 days [1]	EC50 [2]
C[C@H](O)C(=O)Nc1ccc(-c2ccc3nc(NCc4ccc(S(N)(=O)=O)cc4)nc(NCC(F)(F)F)c3n2)cc1F [Example 209, N-{2-Fluoro-4-[2-(4-sulfamoyl-benzylamino)-4-(2,2,2-trifluoro-ethylamino)-pyrido[3,2-d]pyrimidin-6-yl]-phenyl}-2-hydroxy-propionamide]	< 5 µM	< 0.1 µM
CN(CCS(C)(=O)=O)c1nc(NCc2ccc(S(N)(=O)=O)cc2)nc2ccc(-c3ccc(F)cc3)nc12 [Example 152, 4-{[4-(N-(2-Methanesulfonylethyl)-N-methyl)-amino-6-(4-fluorophenyl)-pyrido[3,2-d]pyrimidin-2-ylamino]-methyl}-benzenesulfonamide]	< 5 µM	< 0.1 µM
CCOc1nc(NCc2ccc(F)cc2F)nc2ccc(-c3ccc(F)cc3)nc12 [Example 108, (2,4-Difluoro-benzyl)-{4-ethoxy-6-(4-fluoro-phenyl)-pyrido[3,2-d]pyrimidin-2-yl]-amine]	5 to 25 µM	< 0.1 µM
CC(C)Nc1nc(NCC(F)(F)F)nc2ccc(-c3ccc(F)cc3)nc12 [Example 55, 6-(4-Fluoro-phenyl)-N4-isopropyl-N2-(2,2,2-trifluoro-ethyl)-pyrido[3,2-d]pyrimidine-2,4-diamine]	5 to 25 µM	< 0.1 µM
CCOc1nc(NCc2ccc(-n3cncn3)cc2)nc2ccc(-c3ccc(F)cc3)nc12 [Example 267, [4-Ethoxy-6-(4-fluoro-phenyl)-pyrido[3,2-d]pyrimidin-2-yl]-(4-[1,2,4]triazol-1-yl-benzyl)-amine]	> 25 µM	< 0.1 µM
CN(CCS(C)(=O)=O)c1nc(NCc2ccc(F)cc2)nc2ccc(-c3ccc(C(N)=O)cc3)nc12 [Example 273, 4-{2-(4-Fluoro-benzylamino)-4-[(2-methanesulfonyl-ethyl)-methyl-amino]-pyrido[3,2-d]pyrimidin-6-yl}-benzamide]	5 to 25 µM	< 0.1 µM
CCOc1nc(NCc2ccc(S(N)(=O)=O)cc2)nc2ccc(-c3ccc(NC(=O)[C@H]4CCNC4)cc3)nc12 [Example 121, (S)-4-{[4-Ethoxy-6-(4-(pyrrolidine-3-carboxamido)-phenyl)-pyrido[3,2-d]pyrimidin-2-ylamino]-methyl}-benzenesulfonamide]	> 25 µM	< 0.1 µM
Fc1ccc(-c2ccc3nc(NCC(F)(F)F)nc(NCC(F)(F)F)c3n2)cc1 [Example 60, 6-(4-Fluoro-phenyl)-2,4-bis(2,2,2-trifluoro-ethylamino)-pyrido[3,2-d]pyrimidine]	> 25 µM	< 0.1 µM
Fc1ccc(-c2ccc3nc(NCc4ccc(-c5csnn5)cc4)nc(NCC(F)(F)F)c3n2)cc1 [Example 245, 6-(4-Fluoro-phenyl)-N2-(4-[1,2,3]thiadiazol-4-yl-benzyl)-N4-(2,2,2-trifluoro-ethyl)-pyrido[3,2-d]pyrimidine-2,4-diamine]	> 25 µM	< 0.1 µM
NS(=O)(=O)c1ccc(CNc2nc(NCC(F)(F)F)c3nc(-c4cn[nH]c4)ccc3n2)cc1 [Example 189, 4-{[6-(1H-Pyrazol-4-yl)-4-(2,2,2-trifluoro-ethylamino)-pyrido[3,2-d]pyrimidin-2-ylamino]-methyl}-benzenesulfonamide]	5 to 25 µM	< 0.1 µM
NS(=O)(=O)c1ccc(CNc2nc(NCC(F)(F)F)c3nc(-c4ccc(=O)[nH]c4)ccc3n2)cc1 [Example 287, 4-{[6-(6-Oxo-1,6-dihydro-pyridin-3-yl)-4-(2,2,2-trifluoro-ethylamino)-pyrido[3,2-d]pyrimidin-2-ylamino]-methyl}-benzenesulfonamide]	> 25 µM	< 0.1 µM
CCOc1nc(NCc2ccc(S(N)(=O)=O)cc2)nc2ccc(-c3ccc(NC(=O)N4CCOCC4)cc3)nc12 [Example 128, 4-{[4-Ethoxy-6-(4-(morpholine-4-carboxamido)-phenyl)-pyrido[3,2-d]pyrimidin-2-ylamino]-methyl}-benzenesulfonamide]	5 to 25 µM	< 0.1 µM
